In patent publication US6313170A, “L-threonate ferrous, as well as pharmaceutical composition and use for improving and treating human anemia thereof” (priority 1997, dated 2001):
Read-outs that look alike come from different tables or passages of the source.

Key:
[1] = tested on: Hemolytic Anemia Model; experiment: Hemolytic anemia model (acetylphenylhydrazine), rats; type: in vivo, male Wistar rats
Protocol: (§1) 1. […] All drugs were diluted by distilled water.
2. […] Animal diet also was purchased from Beijing Medical University.
(1) Hemolytic Anemia Model: Hemolytic anemia model was prepared for rats by injecting reagent of acetylphenylhydrazine (C8 H10 N2 O, produced by Beijing Biochemical Company) subcutaneously. The drug acetyphenylhydrazine was mixed with physiological saline to get its injection solution of 4% by weight of acetyphenylhydrazine. The solution was injected subcutaneously into each rat with a dosage of 57 μg/g at the beginning of the experiments. The content of blood hemochrome for each rat was examined at 2 days and 4 days later, respectively. When the mean blood hemochrome decreased to about 6.11±0.25 g %, rats were randomly divided into 6 groups of 18 rats each. […] The forth groups was positive drug control groups. The fifth group and the sixth group were designed as model group and normal control group, respectively.

[2] = in vivo, po
[3] = water
[4] = tested on: IDA for Children; details: for FEP / RBC / SF / Hb: tablets 7.5 mg Fe + 30 mg vitamin C
Protocol: Subjects: Thirty school-age children aged from 8 to 13 years of Haerbin city of China.
Methods: Blood samples of 10 μl from ear and 5 ml from arm vein for each patient were collected for measurement.
(1) Measurement of RBC: 10 μl blood sample was added to 2 ml diluent and the mixture was shaken completely. One drop of this suspending solution taken by circle glass bar was poured into counting cell. RBC was countered through microscope by laying counting plate on the microstat.
(2) Measurement of HB: The ferric cyanide method was used to determine the HB. 10 μl ear blood sample was added to 5 ml acid diluent to obtain the completely mixed solution by shaking. HB was measured by SH hemoglobinometer manufactured by Huauang Instrument Company of Jianshu Province. Ferric cyanide was purchased from Medical Examination Institute of Shanghai.
(3) Measurement of FEP: To add 0.05 ml whole blood sample anticoagulated by heparin to 3.5 ml of acid anhydrous ethyl alcohol, the mixture was shaken for 5 min and then was centrifugalized with speed of 3000 r/min. The centrifugate of mixture was used for the measurement of fluorometric method (400 nm for exciting optical filter and 600 nm for emitting optical filter).
According to formula given below, the FEP can be calculated. [formula]
Where Fu and PCV represent fluorescence extent and hematocrit, respectively.
To centifugalized 2 ml whole blood sample, the upper solution was used for measurement of SF through the method of radio-immune competition-inhibition program.
Among these 62 IDA patients, 30 children were randomly selected as treatment group of ferrous L-threonate.
Another 30 children with IDA were selected from another prime school with the same diagnosing standards and were established as control group.
Observation time for treatment group and control group was 30 days period and during that period, there were no any intervention on children's activity and food.
(3) Dosages: Each child of treatment group was administered ferrous L-threonate tablets twice a day, one tablet each time. While normal control group was treated with placebo by the same method.

[5] = tested on: Nutritional IDA Model
Protocol: as §1
(2) Nutritional Anemia Model: Male Wistar rats with body weight 43±2.5 g (Animal Center of Beijing Medical University) were randomly divided into 8 groups of 10 rats each, wherein 6 groups were established for the investigation of nutritional anemia and 2 groups were used as normal control group. The rats of these six groups were supplemented with iron-low diet (prepared according to the formula of AOAC, iron content 8.0 mg/kg) and deionized water four weeks to prepare the nutritional IDA model, which also was called hemoglobin exhausting test. Another two groups were designed as normal control groups and were provided with normal diet (obtained from Beijing Medical University) and water during the whole experimental period.
Hemoglobin of each group of rats was measured one time every 7 days. […] Other 6 groups (three for ferrous L-threonate, one for ferrous gluconate, one for mode control and one normal control group) rats were kept under controlled conditions (ambient temperature 23° C., 60% relative humidity, and 10 hours light) in animal feeding room to continue the further test.

[6] = tested on: rat
[7] = tested on: bone marrow cells; details: in vivo
[8] = 8.64 mg Fe/kg (middle dosage / positive control)
[9] = after treatment (30 days), twice a day

Substance: ferrous L-threonate
- Iron content of whole blood [1, 8]: 301.89 ± 19.500 µg/mL
- Serum ferritin (SF) [1, 8]: 23.54 ± 2.50 ng/mL
- hemoglobin content ([1]; 8.64 mg Fe/kg (middle dosage / positive control), after anemia (before treatment)): 5.87 g %
- hemoglobin content ([1]; 8.64 mg Fe/kg (middle dosage / positive control), before anemia (baseline)): 15.01 g %
- hemoglobin content ([1]; 8.64 mg Fe/kg (middle dosage / positive control), one week after treatment): 11.11 g %
- hemoglobin content ([1]; 8.64 mg Fe/kg (middle dosage / positive control), two weeks after treatment): 14.04 g %
- whole blood iron and serum ferritin compared with ferrous gluconate group ([1]; groups except low dosage group): more considerably better than those of ferrous gluconate group
- Iron content of whole blood ([1]; high dosage, 17.28 mg Fe/kg): 326.95 ± 26.956 µg/mL
- Serum ferritin (SF) ([1]; high dosage, 17.28 mg Fe/kg): 24.05 ± 1.74 ng/mL
- hemoglobin content ([1]; high dosage, 17.28 mg Fe/kg, after anemia (before treatment)): 6.18 g %
- hemoglobin content ([1]; high dosage, 17.28 mg Fe/kg, before anemia (baseline)): 14.9 g %
- hemoglobin content ([1]; high dosage, 17.28 mg Fe/kg, one week after treatment): 11.95 g %
- hemoglobin content ([1]; high dosage, 17.28 mg Fe/kg, two weeks after treatment): 14.34 g %
- Iron content of whole blood ([1]; low dosage, 4.32 mg Fe/kg): 283.53 ± 23.051 µg/mL
- Serum ferritin (SF) ([1]; low dosage, 4.32 mg Fe/kg): 19.38 ± 1.57 ng/mL
- hemoglobin content ([1]; low dosage, 4.32 mg Fe/kg, after anemia (before treatment)): 5.94 g %
- hemoglobin content ([1]; low dosage, 4.32 mg Fe/kg, before anemia (baseline)): 14.89 g %
- hemoglobin content ([1]; low dosage, 4.32 mg Fe/kg, one week after treatment): 9.95 g %
- hemoglobin content ([1]; low dosage, 4.32 mg Fe/kg, two weeks after treatment): 12.57 g %
- action on treating anemia compared with ferrous gluconate ([1]; same dosage of iron, 8.64 mg/kg): considerably better than ferrous gluconate
- embryonic toxicity and aberration [2]: did not produce embryonic toxicity and abberation
- solubility [3]: soluble in water
- variations of Hb, SF and RBC compared with control group ([4]; 30 days of treatment, P<0.01): significantly better compared with those of control group (P<0.01)
- FEP ([4]; after treatment (30 days)): 445.1 µg/L
- RBC [4, 9]: 401.5 ± 12.4 10^4 /mm^3
- SF [4, 9]: 17.01 ± 1.99 µg/L
- Hb ([4]; before treatment, twice a day): 104.8 ± 6.1 g/L
- RBC ([4]; before treatment, twice a day): 387 ± 6.67 10^4 /mm^3
- SF ([4]; before treatment, twice a day): 12.45 ± 1.50 µg/L
- number of children with Hb > 120 g/L and ΔHb > 10 g/L ([4]; n=30, tablets, 30 days): 17
- number of children with no effectiveness ([4]; n=30, tablets, 30 days): 6
- number of children with ΔHb > 5 g/L ([4]; n=30, tablets, 30 days): 7
- share of children with Hb > 120 g/L and ΔHb > 10 g/L ([4]; n=30, tablets, 30 days): 56.7%
- share of children with no effectiveness ([4]; n=30, tablets, 30 days): 20.0%
- share of children with ΔHb > 5 g/L ([4]; n=30, tablets, 30 days): 23.3%
- FEP ([4]; printed under after treatment (30 days)): 120.4 ± 11.2 µg/L
- Hb ([4]; printed under before treatment): 669.1 ± 72.0 g/L
- effective rate of improving the case of IDA for children ([4]; tablets, 30 days): 80%
- variations of Hb, SF and RBC before and after treatment ([4]; treatment group, P<0.01): understandingly significant difference (P<0.01)
- hemochrome content, onset of increase ([5]; end of 7 days supplementation): started to increase at the end of 7 days supplementation
- hemochrome content compared with normal control groups ([5]; rat, in vivo): reached nearly the normal levels of normal control groups
- parameters investigated compared with ferrous gluconate ([5]; same ferrous dosage): better than those of the known drug, ferrous gluconate
- toxicity grade ([6]; acute toxicity, rat): belongs to the grade of very lower
- LD50 ([6]; female rat): 3160 mg/kg
- LD50 ([6]; male rat): 3690 mg/kg
- safety in use ([6]; rat, in vivo): used safely and without toxicity
- micronucleus test result [7]: negative
